Data published in PMC9851200, “Multiparameter phenotypic screening for endogenous TFEB and TFE3 translocation identifies novel chemical series modulating lysosome function” (Autophagy, 2022).

Experiments:
Type in all cases: binding
[1] = molecular target: kinases (KINOMEscan panel) (Homo sapiens, UniProt O75914); conditions: NEW KINOMEscan
[2] = molecular target: kinases (KINOMEscan panel) (Homo sapiens, UniProt P07949); conditions: kinase RET; NEW KINOMEscan
[3] = molecular target: kinases (KINOMEscan panel) (Homo sapiens, UniProt P08581, M1250T); conditions: kinase MET(M1250T); NEW KINOMEscan
[4] = molecular target: kinases (KINOMEscan panel) (Homo sapiens, UniProt P36888, D835Y); conditions: kinase FLT3(D835Y); NEW KINOMEscan
[5] = molecular target: T1, kinases (KINOMEscan panel) (Homo sapiens, UniProt P41743); conditions: PRKCI; NEW KINOMEscan
T1 sequence (P41743 1-596): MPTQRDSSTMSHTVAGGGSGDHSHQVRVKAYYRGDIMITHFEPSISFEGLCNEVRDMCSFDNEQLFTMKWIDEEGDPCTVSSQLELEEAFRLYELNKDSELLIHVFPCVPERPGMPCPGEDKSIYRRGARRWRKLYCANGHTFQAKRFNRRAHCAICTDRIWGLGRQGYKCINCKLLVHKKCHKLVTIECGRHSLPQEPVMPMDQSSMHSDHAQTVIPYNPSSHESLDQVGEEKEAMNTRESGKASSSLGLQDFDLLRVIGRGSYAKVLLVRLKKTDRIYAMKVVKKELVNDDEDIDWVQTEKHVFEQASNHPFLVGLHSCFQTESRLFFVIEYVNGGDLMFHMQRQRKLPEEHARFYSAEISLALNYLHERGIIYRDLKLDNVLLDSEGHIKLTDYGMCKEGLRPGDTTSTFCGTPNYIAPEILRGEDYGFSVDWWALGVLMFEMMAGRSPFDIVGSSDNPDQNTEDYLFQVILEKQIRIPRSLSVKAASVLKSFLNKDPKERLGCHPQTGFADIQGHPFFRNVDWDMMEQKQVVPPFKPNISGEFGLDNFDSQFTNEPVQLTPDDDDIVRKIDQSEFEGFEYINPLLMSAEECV

[6] = molecular target: T2, kinases (KINOMEscan panel) (Homo sapiens, UniProt Q12866); conditions: kinase MERTK; NEW KINOMEscan
T2 sequence (Q12866 21-999): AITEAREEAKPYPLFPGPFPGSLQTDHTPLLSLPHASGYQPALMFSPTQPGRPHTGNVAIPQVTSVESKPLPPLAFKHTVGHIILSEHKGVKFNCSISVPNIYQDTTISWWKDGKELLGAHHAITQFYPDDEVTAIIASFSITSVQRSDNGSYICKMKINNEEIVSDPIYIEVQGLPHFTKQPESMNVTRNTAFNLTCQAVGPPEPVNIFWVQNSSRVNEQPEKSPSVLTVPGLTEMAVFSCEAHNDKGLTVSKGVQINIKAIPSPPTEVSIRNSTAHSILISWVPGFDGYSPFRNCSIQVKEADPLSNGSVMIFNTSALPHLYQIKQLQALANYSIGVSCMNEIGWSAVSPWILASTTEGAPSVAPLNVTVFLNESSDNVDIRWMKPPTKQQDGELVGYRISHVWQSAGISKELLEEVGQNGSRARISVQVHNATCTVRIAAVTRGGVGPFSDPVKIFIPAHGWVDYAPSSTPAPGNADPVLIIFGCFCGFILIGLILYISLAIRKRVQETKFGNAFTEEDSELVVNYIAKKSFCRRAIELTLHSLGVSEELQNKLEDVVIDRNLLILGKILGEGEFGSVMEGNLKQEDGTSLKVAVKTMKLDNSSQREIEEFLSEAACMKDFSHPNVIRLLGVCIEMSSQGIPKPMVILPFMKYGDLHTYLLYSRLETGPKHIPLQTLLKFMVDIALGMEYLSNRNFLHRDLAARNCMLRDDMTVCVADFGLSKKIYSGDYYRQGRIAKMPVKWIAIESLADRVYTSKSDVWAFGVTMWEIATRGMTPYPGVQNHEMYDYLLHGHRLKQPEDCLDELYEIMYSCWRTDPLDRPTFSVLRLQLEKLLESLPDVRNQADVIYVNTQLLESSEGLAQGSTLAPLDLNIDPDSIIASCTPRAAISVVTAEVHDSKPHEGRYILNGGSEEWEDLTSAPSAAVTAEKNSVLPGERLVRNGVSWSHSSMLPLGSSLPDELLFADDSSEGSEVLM

[7] = molecular target: kinases (KINOMEscan panel) (Homo sapiens, UniProt Q13705); conditions: kinase ACVR2B; NEW KINOMEscan
[8] = molecular target: T3, kinases (KINOMEscan panel) (Homo sapiens, UniProt Q8TBX8); conditions: PIP4K2C; NEW KINOMEscan
T3 sequence (Q8TBX8 1-421): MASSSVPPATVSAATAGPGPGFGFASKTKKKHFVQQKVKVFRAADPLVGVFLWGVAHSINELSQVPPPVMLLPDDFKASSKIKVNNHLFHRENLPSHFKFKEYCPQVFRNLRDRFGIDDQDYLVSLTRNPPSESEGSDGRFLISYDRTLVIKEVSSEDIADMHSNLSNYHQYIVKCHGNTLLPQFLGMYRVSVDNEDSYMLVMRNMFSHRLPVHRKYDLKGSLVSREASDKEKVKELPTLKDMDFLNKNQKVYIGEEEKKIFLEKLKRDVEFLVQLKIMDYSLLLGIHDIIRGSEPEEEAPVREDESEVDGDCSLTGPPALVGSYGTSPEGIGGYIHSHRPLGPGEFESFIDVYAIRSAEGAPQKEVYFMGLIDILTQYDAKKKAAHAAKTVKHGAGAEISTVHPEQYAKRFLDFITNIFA

[9] = molecular target: kinases (KINOMEscan panel) (Homo sapiens, UniProt Q9Y3S1); conditions: WNK2; NEW KINOMEscan
[10] = molecular target: kinases (KINOMEscan panel) (Homo sapiens, UniProt Q9Y6R4); conditions: MAP3K4; NEW KINOMEscan
Chain of kinases (KINOMEscan panel) (Homo sapiens, UniProt Q9Y6R4) (Q9Y6R4 whole entry): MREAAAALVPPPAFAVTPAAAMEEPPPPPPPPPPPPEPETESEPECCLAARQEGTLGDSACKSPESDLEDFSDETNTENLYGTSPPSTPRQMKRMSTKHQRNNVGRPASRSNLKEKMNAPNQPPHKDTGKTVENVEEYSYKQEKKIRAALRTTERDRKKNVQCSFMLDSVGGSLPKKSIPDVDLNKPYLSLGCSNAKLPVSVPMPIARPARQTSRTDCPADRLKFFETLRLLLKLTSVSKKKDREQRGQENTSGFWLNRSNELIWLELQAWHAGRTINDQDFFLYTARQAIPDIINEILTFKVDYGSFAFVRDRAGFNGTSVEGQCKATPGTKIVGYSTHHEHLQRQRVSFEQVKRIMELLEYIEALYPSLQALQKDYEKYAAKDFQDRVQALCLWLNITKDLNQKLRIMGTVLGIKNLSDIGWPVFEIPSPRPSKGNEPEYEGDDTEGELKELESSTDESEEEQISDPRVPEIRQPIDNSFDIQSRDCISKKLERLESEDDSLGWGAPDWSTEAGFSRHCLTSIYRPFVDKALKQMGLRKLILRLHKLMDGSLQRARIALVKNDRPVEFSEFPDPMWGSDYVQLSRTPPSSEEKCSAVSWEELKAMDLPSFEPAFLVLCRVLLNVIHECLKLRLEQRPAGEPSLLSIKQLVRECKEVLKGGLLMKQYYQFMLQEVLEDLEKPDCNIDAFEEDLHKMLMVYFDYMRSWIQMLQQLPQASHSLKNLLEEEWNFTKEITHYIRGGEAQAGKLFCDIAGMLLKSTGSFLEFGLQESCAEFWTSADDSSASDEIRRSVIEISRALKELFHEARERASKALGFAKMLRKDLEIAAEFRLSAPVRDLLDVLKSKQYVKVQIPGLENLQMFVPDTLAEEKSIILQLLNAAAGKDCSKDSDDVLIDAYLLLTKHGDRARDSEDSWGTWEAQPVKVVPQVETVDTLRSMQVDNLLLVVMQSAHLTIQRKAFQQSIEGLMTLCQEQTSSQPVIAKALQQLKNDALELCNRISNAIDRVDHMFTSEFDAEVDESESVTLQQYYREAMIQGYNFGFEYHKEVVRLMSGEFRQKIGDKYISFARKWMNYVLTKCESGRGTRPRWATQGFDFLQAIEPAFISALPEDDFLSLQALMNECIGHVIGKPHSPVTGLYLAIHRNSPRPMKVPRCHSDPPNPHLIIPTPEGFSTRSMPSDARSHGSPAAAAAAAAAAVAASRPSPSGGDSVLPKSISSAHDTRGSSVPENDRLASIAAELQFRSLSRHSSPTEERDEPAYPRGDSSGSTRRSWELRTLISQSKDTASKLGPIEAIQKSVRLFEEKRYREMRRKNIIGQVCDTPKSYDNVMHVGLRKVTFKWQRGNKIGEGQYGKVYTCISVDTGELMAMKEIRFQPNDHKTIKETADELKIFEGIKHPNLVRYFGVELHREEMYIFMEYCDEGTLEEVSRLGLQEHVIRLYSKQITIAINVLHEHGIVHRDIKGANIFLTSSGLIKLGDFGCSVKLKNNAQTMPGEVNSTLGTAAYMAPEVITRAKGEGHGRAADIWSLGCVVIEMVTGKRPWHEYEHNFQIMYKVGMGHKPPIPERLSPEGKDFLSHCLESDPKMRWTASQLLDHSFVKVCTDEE

Chain of kinases (KINOMEscan panel) (Homo sapiens, UniProt Q13705) (Q13705 19-512): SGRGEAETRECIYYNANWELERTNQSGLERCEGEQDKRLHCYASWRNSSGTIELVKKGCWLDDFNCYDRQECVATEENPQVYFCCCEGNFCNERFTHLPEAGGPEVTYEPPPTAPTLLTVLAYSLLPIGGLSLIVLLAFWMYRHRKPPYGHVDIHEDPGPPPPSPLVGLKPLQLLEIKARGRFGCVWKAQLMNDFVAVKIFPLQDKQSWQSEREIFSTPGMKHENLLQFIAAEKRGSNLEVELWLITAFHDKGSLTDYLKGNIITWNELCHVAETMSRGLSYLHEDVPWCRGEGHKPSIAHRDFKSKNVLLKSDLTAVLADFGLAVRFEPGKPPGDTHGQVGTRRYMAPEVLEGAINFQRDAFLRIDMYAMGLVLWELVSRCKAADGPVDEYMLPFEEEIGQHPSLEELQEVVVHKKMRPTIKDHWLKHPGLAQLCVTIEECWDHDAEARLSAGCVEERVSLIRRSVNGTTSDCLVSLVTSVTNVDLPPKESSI
Chain of kinases (KINOMEscan panel) (Homo sapiens, UniProt P08581, M1250T) (P08581 25-1390 M1250T): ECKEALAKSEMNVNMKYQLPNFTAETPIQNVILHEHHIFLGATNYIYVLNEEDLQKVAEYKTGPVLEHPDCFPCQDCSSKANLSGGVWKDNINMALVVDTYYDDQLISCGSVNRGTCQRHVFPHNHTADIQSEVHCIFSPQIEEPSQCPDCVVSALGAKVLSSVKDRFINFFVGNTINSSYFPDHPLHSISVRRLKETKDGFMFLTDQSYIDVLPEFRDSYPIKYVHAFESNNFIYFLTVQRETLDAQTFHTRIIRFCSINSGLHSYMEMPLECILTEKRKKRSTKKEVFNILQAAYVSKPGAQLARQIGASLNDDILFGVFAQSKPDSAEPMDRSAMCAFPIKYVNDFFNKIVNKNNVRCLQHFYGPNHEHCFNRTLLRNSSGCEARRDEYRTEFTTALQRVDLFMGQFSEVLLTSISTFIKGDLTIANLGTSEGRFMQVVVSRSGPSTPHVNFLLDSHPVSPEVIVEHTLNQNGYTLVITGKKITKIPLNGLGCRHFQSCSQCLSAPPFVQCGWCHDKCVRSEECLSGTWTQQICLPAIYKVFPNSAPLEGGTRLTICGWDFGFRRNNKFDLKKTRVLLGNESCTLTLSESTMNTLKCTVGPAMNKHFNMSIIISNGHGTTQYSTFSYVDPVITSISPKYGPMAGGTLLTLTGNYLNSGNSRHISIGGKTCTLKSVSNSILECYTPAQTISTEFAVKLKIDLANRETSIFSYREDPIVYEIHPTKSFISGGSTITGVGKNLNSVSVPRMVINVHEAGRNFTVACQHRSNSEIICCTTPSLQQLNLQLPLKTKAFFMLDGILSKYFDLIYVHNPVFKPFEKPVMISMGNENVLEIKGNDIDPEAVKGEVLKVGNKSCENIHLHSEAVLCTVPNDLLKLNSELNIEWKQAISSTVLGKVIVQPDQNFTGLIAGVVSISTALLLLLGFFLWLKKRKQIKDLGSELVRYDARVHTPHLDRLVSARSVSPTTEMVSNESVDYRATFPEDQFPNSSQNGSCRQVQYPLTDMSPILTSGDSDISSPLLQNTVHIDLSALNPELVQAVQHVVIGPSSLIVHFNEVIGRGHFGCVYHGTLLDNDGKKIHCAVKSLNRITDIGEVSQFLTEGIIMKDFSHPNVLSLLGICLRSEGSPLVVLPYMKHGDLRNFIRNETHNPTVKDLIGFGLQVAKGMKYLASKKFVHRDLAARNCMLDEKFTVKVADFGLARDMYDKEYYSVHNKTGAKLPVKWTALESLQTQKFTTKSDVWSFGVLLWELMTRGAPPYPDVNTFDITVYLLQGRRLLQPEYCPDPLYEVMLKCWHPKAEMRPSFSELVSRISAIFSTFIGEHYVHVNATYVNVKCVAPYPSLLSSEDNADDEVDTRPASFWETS
Chain of kinases (KINOMEscan panel) (Homo sapiens, UniProt O75914) (O75914 whole entry): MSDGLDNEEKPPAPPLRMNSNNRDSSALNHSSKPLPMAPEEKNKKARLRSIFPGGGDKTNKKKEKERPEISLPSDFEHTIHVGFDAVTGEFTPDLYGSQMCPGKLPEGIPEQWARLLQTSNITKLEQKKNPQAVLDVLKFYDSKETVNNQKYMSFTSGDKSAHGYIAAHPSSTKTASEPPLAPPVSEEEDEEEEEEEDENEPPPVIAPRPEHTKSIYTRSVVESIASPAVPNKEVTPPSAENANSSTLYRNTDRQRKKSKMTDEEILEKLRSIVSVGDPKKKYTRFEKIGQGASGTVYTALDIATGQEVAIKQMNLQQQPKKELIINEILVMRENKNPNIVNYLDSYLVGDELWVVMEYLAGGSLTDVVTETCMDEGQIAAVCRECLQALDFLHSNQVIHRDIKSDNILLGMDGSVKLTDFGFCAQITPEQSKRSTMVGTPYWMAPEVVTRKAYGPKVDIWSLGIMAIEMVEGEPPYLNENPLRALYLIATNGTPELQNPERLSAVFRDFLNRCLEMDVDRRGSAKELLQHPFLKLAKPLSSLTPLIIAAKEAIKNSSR
Chain of kinases (KINOMEscan panel) (Homo sapiens, UniProt P07949) (P07949 29-1114): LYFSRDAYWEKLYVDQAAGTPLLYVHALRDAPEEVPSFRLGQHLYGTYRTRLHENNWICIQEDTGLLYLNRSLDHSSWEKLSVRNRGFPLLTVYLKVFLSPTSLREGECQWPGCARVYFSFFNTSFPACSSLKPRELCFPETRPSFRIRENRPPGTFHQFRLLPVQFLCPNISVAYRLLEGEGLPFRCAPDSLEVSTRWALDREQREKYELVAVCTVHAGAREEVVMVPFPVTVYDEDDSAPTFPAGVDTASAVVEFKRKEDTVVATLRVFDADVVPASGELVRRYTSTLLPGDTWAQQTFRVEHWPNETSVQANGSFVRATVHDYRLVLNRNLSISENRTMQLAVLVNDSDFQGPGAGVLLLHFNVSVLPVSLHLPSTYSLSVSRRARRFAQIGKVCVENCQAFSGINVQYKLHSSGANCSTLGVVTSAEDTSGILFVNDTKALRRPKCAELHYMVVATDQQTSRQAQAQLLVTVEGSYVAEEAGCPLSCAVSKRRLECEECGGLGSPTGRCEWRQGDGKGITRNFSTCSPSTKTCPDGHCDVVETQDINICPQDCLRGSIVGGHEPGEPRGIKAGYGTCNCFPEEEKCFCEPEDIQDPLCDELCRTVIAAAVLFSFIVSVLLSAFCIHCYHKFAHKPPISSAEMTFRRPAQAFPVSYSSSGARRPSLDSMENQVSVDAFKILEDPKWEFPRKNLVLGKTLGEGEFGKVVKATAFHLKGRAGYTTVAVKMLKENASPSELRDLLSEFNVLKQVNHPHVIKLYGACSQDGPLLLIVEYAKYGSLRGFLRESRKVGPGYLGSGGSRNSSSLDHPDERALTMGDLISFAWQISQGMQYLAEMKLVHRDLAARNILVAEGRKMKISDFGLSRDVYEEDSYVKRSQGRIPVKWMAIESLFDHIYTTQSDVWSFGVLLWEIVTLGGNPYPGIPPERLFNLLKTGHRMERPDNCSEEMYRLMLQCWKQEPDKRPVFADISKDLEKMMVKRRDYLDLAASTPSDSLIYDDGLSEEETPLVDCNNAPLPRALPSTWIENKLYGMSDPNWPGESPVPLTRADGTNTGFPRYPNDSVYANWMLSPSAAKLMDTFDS

Compound	KINOMEscan PAK3 [1]	KINOMEscan RET [2]	KINOMEscan MET(M1250T) [3]	KINOMEscan FLT3(D835Y) [4]	KINOMEscan PRKCI [5]	KINOMEscan MERTK [6]	KINOMEscan ACVR2B [7]	KINOMEscan PIP4K2C [8]	KINOMEscan WNK2 [9]	KINOMEscan MAP3K4 [10]
Cc1cccc(-c2nc(Nc3ccc4nn(C)cc4c3)c3ccccc3n2)n1 [NK167]	12	0	0	0	0	0	0	0	0	3
Cc1cccc(-c2nc(N(C)c3ccc4ncsc4c3)c3ccccc3n2)n1 [NK-161]	17	0	3	3	0	11	22	0	0	0
